# How the values were obtained:
# human Gal-3 (hGal-3) = human Gal-3 (hGal-3) (Homo sapiens (Human), UniProt P17931); assay: Competitive binding assay: biotinylated hGal-3 binding to microplate-adsorbed asialofetuin (ASF); details: IC50 values from several measurements given as geomean
# Experimental: (§1) The inhibitory activity of compounds is determined in competitive binding assays. This spectrophotometric assay measures the binding of biotinylated human Gal-3 (hGal-3) or human Gal-1 (hGal-1), respectively, to a microplate-adsorbed glycoprotein, asialofetuin (ASF) (Proc Natl Acad Sci USA. 2013 Mar. 26; 110(13):5052-7.). Alternatively, and preferably, a human Gal-1 version in which all six cysteines are substituted by serines may be used.
# (§2) Briefly, compounds are serially diluted in DMSO (working dilutions). ASF-coated 384well plates are supplemented with 22.8 μL/well of biotinylated hGal-3 or hGal-1 in assay buffer (i.e. 300-1000 ng/mL biotinylated hGal-3 or hGal-1) to which 1.2 μL of compound working dilutions are added and mixed.
# (§3) Plates are incubated for 3 hours at 4° C., then washed with cold assay buffer (3×50 uL), incubated for 1 hour with 25 μL/well of a streptavidin-peroxidase solution (diluted in assay buffer to 80 ng/mL) at 4° C., followed by further washing steps with assay buffer (3×50 uL). Finally, 25 μL/well of ABTS substrate is added.
# (§4) The calculated IC50 values may fluctuate depending on the daily assay performance. Fluctuations of this kind are known to those skilled in the art. IC50 values from several measurements are given as geomean values.
# human Gal-1 (hGal-1) = human Gal-1 (hGal-1) (Homo sapiens, UniProt P09382, C131S/C17S/C43S/C61S/C89S); assay: Competitive binding assay: biotinylated hGal-1 binding to microplate-adsorbed asialofetuin (ASF); details: IC50 values from several measurements given as geomean
# Experimental: as §1, §2, §3, §4
# human Gal-3 (hGal-3), sequence (P17931 whole entry): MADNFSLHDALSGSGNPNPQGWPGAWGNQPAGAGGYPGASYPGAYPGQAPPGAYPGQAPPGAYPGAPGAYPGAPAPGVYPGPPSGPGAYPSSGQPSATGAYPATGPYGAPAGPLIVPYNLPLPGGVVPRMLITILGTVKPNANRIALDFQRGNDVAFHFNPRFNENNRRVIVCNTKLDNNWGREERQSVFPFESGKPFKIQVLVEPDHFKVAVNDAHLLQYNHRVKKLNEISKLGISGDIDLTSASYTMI
SMILES,IC50 (human Gal-3 (hGal-3)),IC50 (human Gal-1 (hGal-1))
CO[C@@H]1[C@@H](n2cc(-c3ccc(C)c(F)c3F)nn2)[C@@H](O)[C@@H](CO)O[C@@H]1Cc1cn(C23CC(C)(C2)C3)nn1 [Ex 1.1.14.],40 nM,2610 nM
CO[C@@H]1[C@@H](n2cc(-c3ccc(F)c(F)c3F)nn2)[C@@H](O)[C@@H](CO)O[C@@H]1Cc1cn(C23CC(F)(C2)C3)nn1 [Ex 3.1.25.],40 nM,1550 nM
CO[C@@H]1[C@@H](n2cc(-c3ccc(Cl)c(F)c3F)nn2)[C@@H](O)[C@@H](CO)O[C@@H]1Cn1cc(C2(C)CCC2)nn1 [Ex 2.2.13.],30 nM,1510 nM
CO[C@@H]1[C@@H](n2cc(-c3ccc(Cl)c(F)c3F)nn2)[C@@H](O)[C@@H](CO)O[C@@H]1Cn1cc(C23CC(C2)C3)nn1 [Ex 2.2.12.],50 nM,3400 nM
CCC1(c2cn(C[C@H]3O[C@H](CO)[C@H](O)[C@H](n4cc(-c5ccc(F)c(F)c5F)nn4)[C@H]3OC)nn2)COC1 [Ex 3.2.38.],50 nM,470 nM
CO[C@@H]1[C@@H](n2cc(-c3ccc(F)c(F)c3F)nn2)[C@@H](O)[C@@H](CO)O[C@@H]1Cc1cn(C2(C(F)(F)F)CC2)nn1 [Ex 3.1.54.],50 nM,280 nM
CO[C@@H]1[C@@H](n2cc(-c3ccc(F)c(F)c3F)nn2)[C@@H](O)[C@@H](CO)O[C@@H]1Cc1cn(C2(CO)CC2)nn1 [Ex 3.1.4.],60 nM,810 nM
CO[C@@H]1[C@@H](n2cc(-c3ccc(Br)c(F)c3F)nn2)[C@@H](O)[C@@H](CO)O[C@@H]1Cc1cn(C2(C(F)F)CCC2)nn1 [Ex 4.1.43.],30 nM,960 nM
CO[C@@H]1[C@@H](n2cc(-c3ccc(Cl)c(F)c3F)nn2)[C@@H](O)[C@@H](CO)O[C@@H]1Cc1cn(C2(CO)CCCC2)nn1 [Ex 2.1.5.],60 nM,2250 nM
"CO[C@@H]1[C@@H](n2cc(-c3ccc(F)c(F)c3F)nn2)[C@@H](O)[C@@H](CO)O[C@@H]1Cc1cn([C@@H]2CCOC[C@H]2F)nn1 (single isomer, unassigned) [Example 3.1.66.C, (2R,3R,4S,5R,6R)-6-((1-((3S*,4R*)-3-fluorotetrahydro-2H-pyran-4-yl)-1H-1,2,3-triazol-4-yl)methyl)-2-(hydroxymethyl)-5-methoxy-4-(4-(2,3,4-trifluorophenyl)-1H-1,2,3-triazol-1-yl)tetrahydro-2H-pyran-3-ol]",40 nM,270 nM
CO[C@@H]1[C@@H](n2cc(-c3ccc(Cl)c(F)c3F)nn2)[C@@H](O)[C@@H](CO)O[C@@H]1Cc1cn(C2(CO)CC2)nn1 [Ex 2.1.4.],40 nM,3050 nM
CO[C@@H]1[C@@H](n2cc(-c3ccc(F)c(F)c3F)nn2)[C@@H](O)[C@@H](CO)O[C@@H]1Cn1cc(C2(C)CCC2)nn1 [Ex 3.2.13.],80 nM,670 nM
CO[C@@H]1[C@@H](n2cc(-c3ccc(F)c(F)c3F)nn2)[C@@H](O)[C@@H](CO)O[C@@H]1Cc1cn(C2CC3(COC3)C2)nn1 [Ex 3.1.16.],120 nM,1110 nM
"CO[C@@H]1[C@@H](n2cc(-c3ccc(Cl)c(F)c3F)nn2)[C@@H](O)[C@@H](CO)O[C@@H]1Cc1cn(C2(C(F)(F)F)CC2)nn1 [Ex 2.1.54., (2R,3R,4S,5R,6R)-4-(4-(4-Chloro-2,3-difluorophenyl)-1H-1,2,3-triazol-1-yl)-2-(hydroxymethyl)-5-methoxy-6-((1-(1-(trifluoromethyl)cyclopropyl)-1H-1,2,3-triazol-4-yl)methyl)tetrahydro-2H-pyran-3-ol]",30 nM,700 nM
CO[C@@H]1[C@@H](n2cc(-c3ccc(C)c(F)c3F)nn2)[C@@H](O)[C@@H](CO)O[C@@H]1Cc1cn(C2(C(F)(F)F)COC2)nn1 [Ex 1.1.58.],30 nM,800 nM
"CO[C@@H]1[C@@H](n2cc(-c3ccc(Cl)c(F)c3F)nn2)[C@@H](O)[C@@H](CO)O[C@@H]1Cc1cn(C23COC(C)(C2)C3)nn1 [Ex 2.1.59., (2R,3R,4S,5R,6R)-4-(4-(4-chloro-2,3-difluorophenyl)-1H-1,2,3-triazol-1-yl)-2-(hydroxymethyl)-5-methoxy-6-((1-(1-methyl-2-oxabicyclo[2.1.1]hexan-4-yl)-1H-1,2,3-triazol-4-yl)methyl)tetrahydro-2H-pyran-3-ol]",50 nM,2370 nM

SMILES,IC50 (human Gal-3 (hGal-3)),IC50 (human Gal-1 (hGal-1))
CO[C@@H]1[C@@H](n2cc(-c3ccc(Br)c(F)c3F)nn2)[C@@H](O)[C@@H](CO)O[C@@H]1Cc1cn(C23CC(C2)C3)nn1 [Ex 4.1.12.],40 nM,3920 nM
CCC1(c2cn(C[C@H]3O[C@H](CO)[C@H](O)[C@H](n4cc(-c5ccc(Br)c(F)c5F)nn4)[C@H]3OC)nn2)COC1 [Ex 4.2.38.],50 nM,2260 nM
"CO[C@@H]1[C@@H](n2cc(-c3ccc(C)c(F)c3F)nn2)[C@@H](O)[C@@H](CO)O[C@@H]1Cn1cc(C(C)(C)O)nn1 [Ex 1.2.34., (2R,3R,4S,5R,6R)-4-(4-(2,3-Difluoro-4-methylphenyl)-1H-1,2,3-triazol-1-yl)-2-(hydroxymethyl)-6-((4-(2-hydroxypropan-2-yl)-1H-1,2,3-triazol-1-yl)methyl)-5-methoxytetrahydro-2H-pyran-3-ol]",80 nM,5330 nM
CO[C@@H]1[C@@H](n2cc(-c3ccc(Cl)c(F)c3F)nn2)[C@@H](O)[C@@H](CO)O[C@@H]1Cn1cc(C2(O)CC2)nn1 [Ex 2.2.36.],90 nM,3160 nM
"CO[C@@H]1[C@@H](n2cc(-c3ccc(Br)c(F)c3F)nn2)[C@@H](O)[C@@H](CO)O[C@@H]1Cc1cn([C@@H]2CCCC2(F)F)nn1 [Example 4.1.64.A, (2R,3R,4S,5R,6R)-4-(4-(4-bromo-2,3-difluorophenyl)-1H-1,2,3-triazol-1-yl)-6-((1-((R)-2,2-difluorocyclopentyl)-1H-1,2,3-triazol-4-yl)methyl)-2-(hydroxymethyl)-5-methoxytetrahydro-2H-pyran-3-ol]",30 nM,1740 nM
CO[C@@H]1[C@@H](n2cc(-c3ccc(Br)c(F)c3F)nn2)[C@@H](O)[C@@H](CO)O[C@@H]1Cn1cc(C(C)(C)O)nn1 [Ex 4.2.34.],100 nM,5490 nM
CO[C@@H]1[C@@H](n2cc(-c3ccc(F)c(F)c3F)nn2)[C@@H](O)[C@@H](CO)O[C@@H]1Cc1cn(C23CCC(N)(CC2)CC3)nn1 [Ex 3.2.39.],50 nM,810 nM
CO[C@@H]1[C@@H](n2cc(-c3ccc(Cl)c(F)c3F)nn2)[C@@H](O)[C@@H](CO)O[C@@H]1Cc1cn(C2COCC2(F)F)nn1 (mixture of isomers) [Example 2.1.90.B],20 nM,910 nM
CO[C@@H]1[C@@H](n2cc(-c3ccc(C)c(F)c3F)nn2)[C@@H](O)[C@@H](CO)O[C@@H]1Cc1cn([C@@H]2COCC[C@H]2O)nn1 [Ex 1.1.1.],50 nM,2610 nM
CO[C@@H]1[C@@H](n2cc(-c3ccc(Cl)c(F)c3F)nn2)[C@@H](O)[C@@H](CO)O[C@@H]1Cc1cn(C2(C(F)(F)F)CC3CCC2C3)nn1 (stereo partly shown) [Ex 2.1.70.],50 nM,830 nM
CO[C@@H]1[C@@H](n2cc(-c3ccc(F)c(F)c3F)nn2)[C@@H](O)[C@@H](CO)O[C@@H]1Cc1cn(C2(CO)CCC2)nn1 [Ex 3.1.11.],40 nM,890 nM
"CO[C@@H]1[C@@H](n2cc(-c3ccc(Br)c(F)c3F)nn2)[C@@H](O)[C@@H](CO)O[C@@H]1Cc1cn([C@H]2CCCC2(F)F)nn1 [Example 4.1.64.B, (2R,3R,4S,5R,6R)-4-(4-(4-bromo-2,3-difluorophenyl)-1H-1,2,3-triazol-1-yl)-6-((1-((S)-2,2-difluorocyclopentyl)-1H-1,2,3-triazol-4-yl)methyl)-2-(hydroxymethyl)-5-methoxytetrahydro-2H-pyran-3-ol]",50 nM,1810 nM
CO[C@@H]1[C@@H](n2cc(-c3ccc(Cl)c(F)c3F)nn2)[C@@H](O)[C@@H](CO)O[C@@H]1Cn1cc(C2(O)CCCC2)nn1 [Ex 2.2.33.],80 nM,4780 nM
"CO[C@@H]1[C@@H](n2cc(-c3ccc(F)c(F)c3F)nn2)[C@@H](O)[C@@H](CO)O[C@@H]1Cc1cn(C2(C(F)(F)F)COC2)nn1 [Ex 3.1.58., (2R,3R,4S,5R,6R)-2-(hydroxymethyl)-5-methoxy-6-((1-(3-(trifluoromethyl)oxetan-3-yl)-1H-1,2,3-triazol-4-yl)methyl)-4-(4-(2,3,4-trifluorophenyl)-1H-1,2,3-triazol-1-yl)tetrahydro-2H-pyran-3-ol]",40 nM,200 nM
CO[C@@H]1[C@@H](n2cc(-c3ccc(C)c(F)c3F)nn2)[C@@H](O)[C@@H](CO)O[C@@H]1Cc1cn(C2CC3(COC3)C2)nn1 [Ex 1.1.16.],50 nM,3690 nM
CO[C@@H]1[C@@H](n2cc(-c3ccc(C)c(F)c3F)nn2)[C@@H](O)[C@@H](CO)O[C@@H]1Cn1cc(C2(C)COC2)nn1 [Ex 1.2.6.],40 nM,2970 nM

# — patent publication US20240109930A1, “TRIAZOLYL-METHYL SUBSTITUTED ALPHA-D-GALACTOPYRANOSIDE DERIVATIVES” (Idorsia Pharmaceuticals Ltd, priority 2021, published 2024)
